Data reported in ChEMBL document CHEMBL1629666, “Quinolone resistance in Neisseria gonorrhoeae: rapid genotyping of quinolone resistance-determining regions in gyrA and parC genes by melting curve analysis predicts susceptibility” (2009).
In brackets after ≈: the same amount, converted by molar mass.

How the values were obtained:
Neisseria gonorrhoeae [1] = test: Antimicrobial activity against Neisseria gonorrhoeae 95G0142 harboring gyrA S91F, D95N and parC S87R mutant gene by Etest
Neisseria gonorrhoeae [2] = test: Antimicrobial activity against Neisseria gonorrhoeae isolate IPC-NG18 harboring gyrA S91F, D95A and parC S87N mutant gene by Etest
Neisseria gonorrhoeae [3] = test: Antimicrobial activity against Neisseria gonorrhoeae 98G0959 harboring gyrA D95N mutant gene by Etest
Neisseria gonorrhoeae [4] = test: Antimicrobial activity against Neisseria gonorrhoeae isolate IPC-NG8 by Etest
Neisseria gonorrhoeae [5] = test: Antimicrobial activity against Neisseria gonorrhoeae isolate IPC-NG14 harboring gyrA S91F and D95A mutant gene by Etest
Neisseria gonorrhoeae [6] = test: Antimicrobial activity against Neisseria gonorrhoeae WHO. M harboring gyrA S91F and D95G mutant gene by Etest
Neisseria gonorrhoeae [7] = test: Antimicrobial activity against Neisseria gonorrhoeae WHO. O by Etest
Neisseria gonorrhoeae [8] = test: Antimicrobial activity against Neisseria gonorrhoeae 91G0622 harboring gyrA D95N mutant gene by Etest
Neisseria gonorrhoeae [9] = test: Antimicrobial activity against Neisseria gonorrhoeae isolate IPC-NG10 harboring gyrA S91F, D95G and parC S87R mutant gene by Etest
Neisseria gonorrhoeae [10] = test: Antimicrobial activity against Neisseria gonorrhoeae isolate IPC-NG5 harboring gyrA S91F, D95A and parC E91G mutant gene by Etest
Neisseria gonorrhoeae [11] = test: Antimicrobial activity against Neisseria gonorrhoeae isolate IPC-NG9 harboring gyrA S91F, D95A and parC S87N and E91Q mutant gene by Etest
Neisseria gonorrhoeae [12] = test: Antimicrobial activity against Neisseria gonorrhoeae WHO. P by Etest
Neisseria gonorrhoeae [13] = test: Antimicrobial activity against Neisseria gonorrhoeae isolate IPC-NG3 harboring gyrA S91F and D95A mutant gene by Etest
Neisseria gonorrhoeae [14] = test: Antimicrobial activity against Neisseria gonorrhoeae WHO. L harboring gyrA S91F, D95N and parC D86N and S88P mutant gene by Etest
Neisseria gonorrhoeae [15] = test: Antimicrobial activity against Neisseria gonorrhoeae 92G0551 harboring gyrA S91Y mutant gene by Etest
Neisseria gonorrhoeae [16] = test: Antimicrobial activity against Neisseria gonorrhoeae isolate IPC-NG16 harboring gyrA S91F, D95A and parC S87R mutant gene by Etest
Neisseria gonorrhoeae [17] = test: Antimicrobial activity against Neisseria gonorrhoeae WHO. C by Etest
Neisseria gonorrhoeae [18] = test: Antimicrobial activity against Neisseria gonorrhoeae 07 QA 02 by Etest
Neisseria gonorrhoeae [19] = test: Antimicrobial activity against Neisseria gonorrhoeae 96G0142 harboring gyrA S91Y and parC E91Q mutant gene by Etest
Neisseria gonorrhoeae [20] = test: Antimicrobial activity against Neisseria gonorrhoeae isolate IPC-NG7 harboring gyrA S91F, D95G and parC S87N and E91Q mutant gene by Etest
Neisseria gonorrhoeae [21] = test: Antimicrobial activity against Neisseria gonorrhoeae 97G0398 harboring gyrA S91F, D95G and parC S88P mutant gene by Etest
Neisseria gonorrhoeae [22] = test: Antimicrobial activity against Neisseria gonorrhoeae 97G0109 harboring gyrA S91F, D95G and parC D86N mutant gene by Etest
Neisseria gonorrhoeae [23] = test: Antimicrobial activity against Neisseria gonorrhoeae isolate IPC-NG19 harboring gyrA S91F, D95A and parC S87N mutant gene by Etest
Neisseria gonorrhoeae [24] = test: Antimicrobial activity against Neisseria gonorrhoeae isolate IPC-NG6 harboring gyrA S91F, D95Y and parC E91G mutant gene by Etest
Neisseria gonorrhoeae [25] = test: Antimicrobial activity against Neisseria gonorrhoeae 98G0872 harboring gyrA S91F, D95N and parC E91K mutant gene by Etest
Neisseria gonorrhoeae [26] = test: Antimicrobial activity against Neisseria gonorrhoeae 93G0065 harboring gyrA D95N mutant gene by Etest
Neisseria gonorrhoeae [27] = test: Antimicrobial activity against Neisseria gonorrhoeae 97G0319 harboring gyrA D95G mutant gene by Etest
Neisseria gonorrhoeae [28] = test: Antimicrobial activity against Neisseria gonorrhoeae isolate IPC-NG2 harboring gyrA S91F, D95Y and parC E91G mutant gene by Etest
Neisseria gonorrhoeae [29] = test: Antimicrobial activity against Neisseria gonorrhoeae isolate IPC-NG1 harboring gyrA S91F, D95Y and parC E91G mutant gene by Etest
Neisseria gonorrhoeae [30] = test: microbe, parasite or virus in culture; settings: isolate 108 175 340
Description: Antimicrobial activity against Neisseria gonorrhoeae isolate 108 175 340 harboring gyrA S91F, D95G and parC E91G mutant gene by Etest

Neisseria gonorrhoeae [31] = test: Antimicrobial activity against Neisseria gonorrhoeae 98G0798 harboring gyrA S91F mutant gene by Etest
Neisseria gonorrhoeae [32] = test: Antimicrobial activity against Neisseria gonorrhoeae 98G0867 harboring gyrA S91F, D95G and parC S87R mutant gene by Etest
Neisseria gonorrhoeae [33] = test: Antimicrobial activity against Neisseria gonorrhoeae isolate IPC-NG13 harboring gyrA S91F, D95A and parC S87N and E91Q mutant gene by Etest
Neisseria gonorrhoeae [34] = test: Antimicrobial activity against Neisseria gonorrhoeae 91G0316 harboring gyrA S91F mutant gene by Etest
Neisseria gonorrhoeae [35] = test: Antimicrobial activity against Neisseria gonorrhoeae 07 QA 06 harboring gyrA S91F mutant gene by Etest
Neisseria gonorrhoeae [36] = test: Antimicrobial activity against Neisseria gonorrhoeae WHO. G harboring gyrA S91F mutant gene by Etest

SMILES: O=C(O)c1cn(C2CC2)c2cc(N3CCNCC3)c(F)cc2c1=O [CIPROFLOXACIN]
- MIC (Neisseria gonorrhoeae [1]): 32 mg/L (≈ 96.6 µM)
- MIC (Neisseria gonorrhoeae [2]): > 32 mg/L
- MIC (Neisseria gonorrhoeae [3]): 0.25 mg/L (≈ 0.754 µM)
- MIC (Neisseria gonorrhoeae [4]): 0.016 mg/L (≈ 0.0483 µM)
- MIC (Neisseria gonorrhoeae [5]): 3 mg/L (≈ 9.05 µM)
- MIC (Neisseria gonorrhoeae [6]): 2 mg/L (≈ 6.04 µM)
- MIC (Neisseria gonorrhoeae [7]): 0.016 mg/L (≈ 0.0483 µM)
- MIC (Neisseria gonorrhoeae [8]): 0.125 mg/L (≈ 0.377 µM)
- MIC (Neisseria gonorrhoeae [9]): > 32 mg/L
- MIC (Neisseria gonorrhoeae [10]): > 32 mg/L
- MIC (Neisseria gonorrhoeae [11]): 16 mg/L (≈ 48.3 µM)
- MIC (Neisseria gonorrhoeae [12]): 0.016 mg/L (≈ 0.0483 µM)
- MIC (Neisseria gonorrhoeae [13]): 3 mg/L (≈ 9.05 µM)
- MIC (Neisseria gonorrhoeae [14]): 16 mg/L (≈ 48.3 µM)
- MIC (Neisseria gonorrhoeae [15]): 0.5 mg/L (≈ 1.51 µM)
- MIC (Neisseria gonorrhoeae [16]): 1.5 mg/L (≈ 4.53 µM)
- MIC (Neisseria gonorrhoeae [17]): 0.016 mg/L (≈ 0.0483 µM)
- MIC (Neisseria gonorrhoeae [18]): 0.023 mg/L (≈ 0.0694 µM)
- MIC (Neisseria gonorrhoeae [19]): 1 mg/L (≈ 3.02 µM)
- MIC (Neisseria gonorrhoeae [20]): > 32 mg/L
- MIC (Neisseria gonorrhoeae [21]): 2 mg/L (≈ 6.04 µM)
- MIC (Neisseria gonorrhoeae [22]): 2 mg/L (≈ 6.04 µM)
- MIC (Neisseria gonorrhoeae [23]): > 32 mg/L
- MIC (Neisseria gonorrhoeae [24]): > 32 mg/L
- MIC (Neisseria gonorrhoeae [25]): 8 mg/L (≈ 24.1 µM)
- MIC (Neisseria gonorrhoeae [26]): 0.125 mg/L (≈ 0.377 µM)
- MIC (Neisseria gonorrhoeae [27]): 0.125 mg/L (≈ 0.377 µM)
- MIC (Neisseria gonorrhoeae [28]): > 32 mg/L
- MIC (Neisseria gonorrhoeae [29]): > 32 mg/L
- MIC (Neisseria gonorrhoeae [30]): 4 mg/L (≈ 12.1 µM)
- MIC (Neisseria gonorrhoeae [31]): 1 mg/L (≈ 3.02 µM)
- MIC (Neisseria gonorrhoeae [32]): 8 mg/L (≈ 24.1 µM)
- MIC (Neisseria gonorrhoeae [33]): 12 mg/L (≈ 36.2 µM)
- MIC (Neisseria gonorrhoeae [34]): 0.5 mg/L (≈ 1.51 µM)
- MIC (Neisseria gonorrhoeae [35]): 0.38 mg/L (≈ 1.15 µM)
- MIC (Neisseria gonorrhoeae [36]): 0.25 mg/L (≈ 0.754 µM)
